Here are results for 44 compounds from patent US20160090556A1, “PRODUCTS COMPRISING MALODOR REDUCTION MATERIALS” (The Procter & Gamble Company, priority 2014, published 2016).

The first data set can be described thus: Liquid dish neat product liquid-air partition coefficient. Format: physicochemical.
Conditions: not given
In the case of `CC1CC=CCCCCCCCC(=O)OCC1` (stereo not shown) [Material 1099], the “Log of liquid dish neat product liquid-air partition coefficient (Comment Code K/L)” value (“Log … (Comment Code K/L)” for short) is listed as “K (Log of liquid dish neat product liquid-air partition coefficient greater than or equal to −7)”. Regarding `Cc1ccc(CC(C)C=O)cc1` (stereo not shown) [Material 742], the “Log … (Comment Code K/L)” value is reported as “K (Log of liquid dish neat product liquid-air partition coefficient greater than or equal to −7)”. As to `O=C1CCCC=CCCCCCCCCCC1` [Material 788], the “Log … (Comment Code K/L)” value is on record as “K (Log of liquid dish neat product liquid-air partition coefficient greater than or equal to −7)”. Consider `C=C(C)C1CC=C(C)C(OC(C)=O)C1` (stereo not shown) [Material 577], for which the “Log … (Comment Code K/L)” value was “K (Log of liquid dish neat product liquid-air partition coefficient greater than or equal to −7)”. As for `CC1=CC2C(C(C)C)CCC(C)(O)C2CC1` (stereo not shown) [Material 1047], the “Log … (Comment Code K/L)” value is given as “K (Log of liquid dish neat product liquid-air partition coefficient greater than or equal to −7)”. As for `COC1(C)CCC23CC1C(C)(C)C2CCC3C` (stereo not shown) [Material 565], the “Log … (Comment Code K/L)” value was “K (Log of liquid dish neat product liquid-air partition coefficient greater than or equal to −7)”. With `CCC=CCC=CC=CC(=O)OCC` [Material 1000], the “Log … (Comment Code K/L)” value was “K (Log of liquid dish neat product liquid-air partition coefficient greater than or equal to −7)”. Take `C=CCOC(=O)COCCC(C)C` [Material 748]: the “Log … (Comment Code K/L)” value is reported as “K (Log of liquid dish neat product liquid-air partition coefficient greater than or equal to −7)”.

As to `CC1=CCCC2(C)CCC(C(C)(C)O)CC12` (stereo not shown) [Material 775], the “Log … (Comment Code K/L)” value was “K (Log of liquid dish neat product liquid-air partition coefficient greater than or equal to −7)”. As to `c1ccc(CCOC2CCCCC2)cc1` [Material 953], the “Log … (Comment Code K/L)” value is “K (Log of liquid dish neat product liquid-air partition coefficient greater than or equal to −7)”. Still for that read-out and setting: the same measure for `COC1CC2CC1C1CC(C=O)CC21` (stereo not shown) [Material 1027]: “K (Log of liquid dish neat product liquid-air partition coefficient greater than or equal to −7)”.

Consider `CC1=C2CCC(C)C2CC(C(C)(C)O)CC1` (stereo not shown) [Material 920], for which the “Log … (Comment Code K/L)” value is reported as “K (Log of liquid dish neat product liquid-air partition coefficient greater than or equal to −7)”. Regarding `CC(C)(O)Cc1ccccc1` [Material 649], the “Log … (Comment Code K/L)” value is listed as “K (Log of liquid dish neat product liquid-air partition coefficient greater than or equal to −7)”. `C=C1C2CCC(C)(OCC)C1CCC2(C)C` (stereo not shown) [Material 606]: the “Log … (Comment Code K/L)” value was “K (Log of liquid dish neat product liquid-air partition coefficient greater than or equal to −7)”.

Staying with this data set, now noted: class code letter within Comment Code.
For the compound `C=CC1(C)CCC(C(C)(C)O)CC1C(=C)C` (stereo not shown) [Material 414], the “Log … (Comment Code K/L)” value was “K (Log of liquid dish neat product liquid-air partition coefficient greater than or equal to −7)”. For the compound `C=CCc1ccc(OC)cc1` [Material 119], the “Log … (Comment Code K/L)” value is on record as “K (Log of liquid dish neat product liquid-air partition coefficient greater than or equal to −7)”. The same measure, in the same setting: as for `CC(CCO)CCCC(C)(C)O` (stereo not shown) [Material 249], the entry is “K (Log of liquid dish neat product liquid-air partition coefficient greater than or equal to −7)”; as for `CCCCCCCC1CCCC(=O)O1` (stereo not shown) [Material 463], “K (Log of liquid dish neat product liquid-air partition coefficient greater than or equal to −7)”. Consider `CC1=CC2(C=CC(C)O2)C(C(C)C)CC1` (stereo not shown) [Material 68], for which the “Log … (Comment Code K/L)” value is “K (Log of liquid dish neat product liquid-air partition coefficient greater than or equal to −7)”.

For `CCCC(=O)OC1CC2CC1C1CC=CC21` (stereo not shown) [Material 484], the “Log … (Comment Code K/L)” value is “K (Log of liquid dish neat product liquid-air partition coefficient greater than or equal to −7)”. For `CC(C)=CCCC(C)=CCC1CCCC1=O` (stereo not shown) [Material 307], the “Log … (Comment Code K/L)” value was “K (Log of liquid dish neat product liquid-air partition coefficient greater than or equal to −7)”. The same measure, in the same setting: as for `CC=CC(=O)C1C(C)C=CCC1(C)C` (stereo not shown) [Material 466], the entry is “K (Log of liquid dish neat product liquid-air partition coefficient greater than or equal to −7)”; as for `Cc1ccc2c(c1)OCC(=O)CO2` [Material 17], “K (Log of liquid dish neat product liquid-air partition coefficient greater than or equal to −7)”. As to `CC1=CCC(C=CC(C)C(C)O)C1(C)C` (stereo not shown) [Material 416], the “Log … (Comment Code K/L)” value was “K (Log of liquid dish neat product liquid-air partition coefficient greater than or equal to −7)”. In the case of `CC1=CC(C)C2C(CCC(C)(C)C2O)C1` (stereo not shown) [Material 39], the “Log … (Comment Code K/L)” value is “K (Log of liquid dish neat product liquid-air partition coefficient greater than or equal to −7)”.

On to `CC1OC(C)C2Cc3ccccc3C2O1` (stereo not shown) [Material 141], for which the “Log … (Comment Code K/L)” value is reported as “K (Log of liquid dish neat product liquid-air partition coefficient greater than or equal to −7)”.

Still in this data set, the particulars now being: code letters K, L.
As to `O=Cc1ccc2c(c1)OCO2` [Material 287], the “Comment Code: Log of liquid dish neat product liquid-air partition coefficient” value (shortened to “Comment Code: Log”) is “K (Log of liquid dish neat product liquid-air partition coefficient greater than or equal to −7)”. On the same count and under the same terms, the same measure for `CC(O)CCC1CCCCC1` (stereo not shown) [Material 699]: “K (Log of liquid dish neat product liquid-air partition coefficient greater than or equal to −7)”; for `O=C1CCCC=CCCCCCCCCCC1` [Material 788]: “K (Log of liquid dish neat product liquid-air partition coefficient greater than or equal to −7)”. In the case of `CCOC(=O)C=Cc1ccccc1` [Material 400], the “Comment Code: Log” value is recorded as “K (Log of liquid dish neat product liquid-air partition coefficient greater than or equal to −7)”. On to `COC1(C)CCC23CC1C(C)(C)C2CCC3C` (stereo not shown) [Material 565], for which the “Comment Code: Log” value is given as “K (Log of liquid dish neat product liquid-air partition coefficient greater than or equal to −7)”. With `C=CC(C)(C#N)Cc1ccccc1` (stereo not shown) [Material 504], the “Comment Code: Log” value is reported as “K (Log of liquid dish neat product liquid-air partition coefficient greater than or equal to −7)”. Turning to `C=C(OC(C)=O)c1ccccc1` [Material 931], the “Comment Code: Log” value is given as “K (Log of liquid dish neat product liquid-air partition coefficient greater than or equal to −7)”. On the same count and under the same terms, as for `C=CC(C)(CCC=C(C)C)OC(C)=O` (stereo not shown) [Material 154], the entry is “K (Log of liquid dish neat product liquid-air partition coefficient greater than or equal to −7)”. On to `CCCC(=O)OC1CC2CC1C1CC=CC21` (stereo not shown) [Material 484], for which the “Comment Code: Log” value was “K (Log of liquid dish neat product liquid-air partition coefficient greater than or equal to −7)”. `COc1ccc(COC(C)=O)cc1` [Material 664]: the “Comment Code: Log” value is on record as “K (Log of liquid dish neat product liquid-air partition coefficient greater than or equal to −7)”. On to `CC(=O)OCCc1ccccc1` [Material 832], for which the “Comment Code: Log” value is on record as “K (Log of liquid dish neat product liquid-air partition coefficient greater than or equal to −7)”. `CC1=CCCC2(C)CCC(C(C)(C)O)CC12` (stereo not shown) [Material 775]: the “Comment Code: Log” value is listed as “K (Log of liquid dish neat product liquid-air partition coefficient greater than or equal to −7)”. On the same count and under the same terms, as for `CCc1ccccc1CC(C)(C)C=O` [Material 354], the entry is “K (Log of liquid dish neat product liquid-air partition coefficient greater than or equal to −7)”; as for `C=Cc1ccc(O)cc1` [Material 789], “K (Log of liquid dish neat product liquid-air partition coefficient greater than or equal to −7)”.

Regarding `CCC(=O)OCCc1ccccc1` [Material 835], the “Comment Code: Log” value is “K (Log of liquid dish neat product liquid-air partition coefficient greater than or equal to −7)”. Regarding `CC(=O)OC(C)c1ccccc1` (stereo not shown) [Material 1041], the “Comment Code: Log” value is listed as “K (Log of liquid dish neat product liquid-air partition coefficient greater than or equal to −7)”. Take `CC(C)CC(=O)OCc1ccccc1` [Material 645]: the “Comment Code: Log” value was “K (Log of liquid dish neat product liquid-air partition coefficient greater than or equal to −7)”. On to `C=CCOC(=O)COC1CCCCC1` [Material 918], for which the “Comment Code: Log” value is “K (Log of liquid dish neat product liquid-air partition coefficient greater than or equal to −7)”.

In the case of `CCCCCOC(=O)c1ccccc1` [Material 672], the “Comment Code: Log” value is recorded as “K (Log of liquid dish neat product liquid-air partition coefficient greater than or equal to −7)”.

As for `CC1(C)C2CCC3(C2)C1C1(CCC3(C)C)OCCO1` (stereo not shown) [Material 1144], the “Comment Code: Log” value is listed as “K (Log of liquid dish neat product liquid-air partition coefficient greater than or equal to −7)”. With `COC1CC2CC1C1CC(C=O)CC21` (stereo not shown) [Material 1027], the “Comment Code: Log” value is “K (Log of liquid dish neat product liquid-air partition coefficient greater than or equal to −7)”. Take `CC1=CC(C)C2C(CCC(C)(C)C2O)C1` (stereo not shown) [Material 39]: the “Comment Code: Log” value is given as “K (Log of liquid dish neat product liquid-air partition coefficient greater than or equal to −7)”. `CCCCCCCC(=O)OCCC(C)C` [Material 237]: the “Comment Code: Log” value is given as “K (Log of liquid dish neat product liquid-air partition coefficient greater than or equal to −7)”.

Turning to `O=C(O)CCc1ccccc1` [Material 255], the “Comment Code: Log” value is on record as “K (Log of liquid dish neat product liquid-air partition coefficient greater than or equal to −7)”.

In the case of `CC1OC(C)C2Cc3ccccc3C2O1` (stereo not shown) [Material 141], the “Comment Code: Log” value is listed as “K (Log of liquid dish neat product liquid-air partition coefficient greater than or equal to −7)”.

Staying with this data set, now noted: codes K/L of the Comment Code, Table 1.
On to `CC1(C)C2CCC3(C2)C1C1(CCC3(C)C)OCCO1` (stereo not shown) [Material 1144], for which the “Comment Code: Log” value is on record as “K (Log of liquid dish neat product liquid-air partition coefficient greater than or equal to −7)”.
